The record followed here is patent publication US9511073B2, “Aromatic amides and uses thereof” (TAXIS Pharmaceuticals, Inc., priority 2011, dated 2016).

Values after ≈ are worked out from the molar mass of the structure shown.

For one experiment, the system named is Staphylococcus aureus (Isolate ID ATCC 29213). The experiment is described as follows: Bacterial assay: MIC by broth microdilution or agar dilution (CLSI), S. aureus ATCC 29213. Conditions: S. aureus (ATCC29213). It counts as cell-based. The procedure, abridged:
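MICs by CLSI broth microdilution or agar dilution against S. aureus ATCC 29213 and its FtsZ-G196A mutant. Values reported as ranges: A ≤0.25 μg/mL, B >0.25–1.0, C >1.0–16, D >16 μg/mL.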
In general terms: In broth dilution the organism is exposed to a series of concentrations in liquid medium.
For `NC(=O)c1c(F)ccc(OC(CC(O)CO)c2nc(-c3ccc(C(F)(F)F)cc3)c(Br)o2)c1F` (stereo not shown) [Compound 156, 3-(1-(5-bromo-4-(4-(trifluoromethyl)phenyl)oxazol-2-yl)-3,4-dihydroxybutoxy)-2,6-difluorobenzamide], the “S. aureus MIC (μg/mL) Activity Range” value was “C (activity>1.0 μg/mL-16 μg/mL)”.

The experiment is the same for the next values; noted with them: Staphylococcus aureus, ATCC29213, read-out: S. aureus MIC (μg/mL) Activity Range, S. aureus (ATCC29213).
Take `COc1ccc(-c2nc(C(CO)Oc3ccc(F)c(C(N)=O)c3F)oc2Br)cc1` (stereo not shown) [Compound 112, 3-(1-(5-bromo-4-(4-methoxyphenyl)oxazol-2-yl)-2-hydroxyethoxy)-2,6-difluorobenzamide]: the MIC fell in the range of 1 to 16 µg/mL (≈ 2.13 to 34.1 µM).

`CC(=O)OCC(Oc1ccc(F)c(C(N)=O)c1F)c1nc(-c2ccc(C(F)(F)F)cc2)c(Br)o1` (stereo not shown) [Compound 37, 2-(5-bromo-4-(4-(trifluoromethyl)phenyl)oxazol-2-yl)-2-(3-carbamoyl-2,4-difluorophenoxy)ethyl acetate]: the MIC is 0.25 to 1 µg/mL.

As to `COc1ccc(-c2csc(C(CO)Oc3ccc(F)c(C(N)=O)c3F)n2)nc1` (stereo not shown) [Compound 260, 2,6-difluoro-3-(2-hydroxy-1-(4-(5-methoxypyridin-2-yl)thiazol-2-yl)ethoxy)benzamide], the MIC was in the range of 1 to 16 µg/mL (≈ 2.45 to 39.3 µM).

For the compound `CC(Oc1ccc(F)c(C(N)=O)c1F)c1nc(Br)c(Cl)s1` (stereo not shown) [Compound 24], the MIC lay in the range of 1 to 16 µg/mL (≈ 2.51 to 40.2 µM).

As to `COCCn1cncc1CNC(=O)OCC(Oc1ccc(F)c(C(N)=O)c1F)c1nc(-c2ccc(C(F)(F)F)cc2)c(Br)o1` (stereo not shown) [Compound 207, 2-(5-bromo-4-(4-(trifluoromethyl)phenyl)oxazol-2-yl)-2-(3-carbamoyl-2,4-difluorophenoxy)ethyl ((1-(2-methoxyethyl)-1H-imidazol-5-yl)methyl)carbamate], the MIC lay in the range of 1 to 16 µg/mL (≈ 1.45 to 23.2 µM).

Take `CCC(Oc1ccc(F)c(C(N)=O)c1F)c1nc(CCO)oc1Br` (stereo not shown) [Compound 122, 3-(1-(5-bromo-2-(2-hydroxyethyl)oxazol-4-yl)propoxy)-2,6-difluorobenzamide]: the MIC is greater than 16 µg/mL.

As for `NC(=O)c1c(F)ccc(OC(CO)c2nc(-c3ccc(OC(F)(F)F)cc3)c(Br)o2)c1F` (stereo not shown) [Compound 116, 3-(1-(5-bromo-4-(4-(trifluoromethoxy)phenyl)oxazol-2-yl)-2-hydroxyethoxy)-2,6-difluorobenzamide], the MIC was less than 0.25 µg/mL.

Take `Cc1noc(CNC(=O)OCC(Oc2ccc(F)c(C(N)=O)c2F)c2nc(-c3ccc(C(F)(F)F)cc3)c(Br)o2)n1` (stereo not shown) [Compound 179, 2-(5-bromo-4-(4-(trifluoromethyl)phenyl)oxazol-2-yl)-2-(3-carbamoyl-2,4-difluorophenoxy)ethyl ((3-methyl-1,2,4-oxadiazol-5-yl)methyl)carbamate]: the MIC was less than 0.25 µg/mL.

`NC(=O)c1c(F)ccc(OC(C(=O)O)c2nc(-c3ccc(Cl)cc3)c(Cl)o2)c1F` (stereo not shown) [Compound 53, 2-(3-carbamoyl-2,4-difluorophenoxy)-2-(5-chloro-4-(4-chlorophenyl)oxazol-2-yl)acetic acid]: the MIC was greater than 16 µg/mL.

Turning to `CC(=O)OCC(Oc1ccc(F)c(C(N)=O)c1F)c1nc(-c2ccc(C(F)(F)F)cc2)c(Cl)o1` (stereo not shown) [Compound 42, 2-(3-carbamoyl-2,4-difluorophenoxy)-2-(5-chloro-4-(4-(trifluoromethyl)phenyl)oxazol-2-yl)ethyl acetate], the MIC is 0.25 to 1 µg/mL.

With `CS(=O)(=O)N1CCN(C(=O)OCC(Oc2ccc(F)c(C(N)=O)c2F)c2nc(-c3ccc(C(F)(F)F)cc3)c(Br)o2)C1=O` (stereo not shown) [Compound 169, 2-(5-bromo-4-(4-(trifluoromethyl)phenyl)oxazol-2-yl)-2-(3-carbamoyl-2,4-difluorophenoxy)ethyl 3-(methylsulfonyl)-2-oxoimidazolidine-1-carboxylate], the MIC fell in the range of 1 to 16 µg/mL (≈ 1.43 to 22.9 µM).

`Cc1cc(CNC(=O)OCC(Oc2ccc(F)c(C(N)=O)c2F)c2nc(-c3ccc(C(F)(F)F)cc3)c(Br)o2)ccn1` (stereo not shown) [Compound 200, 2-(5-bromo-4-(4-(trifluoromethyl)phenyl)oxazol-2-yl)-2-(3-carbamoyl-2,4-difluorophenoxy)ethyl ((2-methylpyridin-4-yl)methyl)carbamate]: the MIC lay within 0.25 to 1 µg/mL (≈ 0.381 to 1.53 µM).

On to `NC(=O)c1c(F)ccc(OC(CO)c2scc(-c3ccc(Cl)cc3)[n+]2[O-])c1F` (stereo not shown) [Compound 267, 2-(1-(3-carbamoyl-2,4-difluorophenoxy)-2-hydroxyethyl)-4-(4-chlorophenyl)thiazole 3-oxide], for which the MIC was greater than 16 µg/mL.

On to `NCCNC(=O)OCC(Oc1ccc(F)c(C(N)=O)c1F)c1nc(-c2ccc(C(F)(F)F)cc2)c(Br)o1` (stereo not shown) [Compound 152, 2-(5-bromo-4-(4-(trifluoromethyl)phenyl)oxazol-2-yl)-2-(3-carbamoyl-2,4-difluorophenoxy)ethyl (2-aminoethyl)carbamate], for which the MIC was in the range of 1 to 16 µg/mL (≈ 1.69 to 27 µM).

As to `NC(=O)c1c(F)ccc(OC(COCCN2CCOCC2)c2nc(-c3ccc(C(F)(F)F)cc3)c(Br)o2)c1F` (stereo not shown) [Compound 168, 3-(1-(5-bromo-4-(4-(trifluoromethyl)phenyl)oxazol-2-yl)-2-(2-morpholinoethoxy)ethoxy)-2,6-difluorobenzamide], the MIC was 1 to 16 µg/mL (≈ 1.61 to 25.8 µM).

In the case of `C[C@@H](O)[C@@H](Oc1ccc(F)c(C(N)=O)c1F)c1nc(-c2ccc(OC(F)F)cc2)c(Br)o1` [Compound 297, 3-((1R,2R)-1-(5-bromo-4-(4-(difluoromethoxy)phenyl)oxazol-2-yl)-2-hydroxypropoxy)-2,6-difluorobenzamide], the MIC was less than 0.25 µg/mL.

For the compound `CC(=O)OCC(Oc1ccc(F)c(C(N)=O)c1F)c1nc(-c2ccc(S(C)(=O)=O)cc2)c(Br)o1` (stereo not shown) [Compound 144, 2-(5-bromo-4-(4-(methylsulfonyl)phenyl)oxazol-2-yl)-2-(3-carbamoyl-2,4-difluorophenoxy)ethyl acetate], the MIC is greater than 16 µg/mL.

`Cn1c(CNC(=O)OCC(Oc2ccc(F)c(C(N)=O)c2F)c2nc(-c3ccc(C(F)(F)F)cc3)c(Br)o2)nc2ccccc21` (stereo not shown) [Compound 210, 2-(5-bromo-4-(4-(trifluoromethyl)phenyl)oxazol-2-yl)-2-(3-carbamoyl-2,4-difluorophenoxy)ethyl ((1-methyl-1H-benzo[d]imidazol-2-yl)methyl)carbamate]: the MIC was in the range of 0.25 to 1 µg/mL (≈ 0.36 to 1.44 µM).

For `CNCC(=O)OCC(Oc1ccc(F)c(C(N)=O)c1F)c1nc(-c2ccc(Cl)cc2)c(Cl)o1` (stereo not shown) [Compound 59, 2-(3-carbamoyl-2,4-difluorophenoxy)-2-(5-chloro-4-(4-chlorophenyl)oxazol-2-yl)ethyl 2-(methylamino)acetate], the MIC fell in the range of 0.25 to 1 µg/mL (≈ 0.5 to 2 µM).

Consider `CNC(=O)OCC(Oc1ccc(F)c(C(N)=O)c1F)c1nc(-c2ccc(C(F)(F)F)cc2)c(Br)o1` (stereo not shown) [Compound 113, 2-(5-bromo-4-(4-(trifluoromethyl)phenyl)oxazol-2-yl)-2-(3-carbamoyl-2,4-difluorophenoxy)ethyl methylcarbamate], for which the MIC was in the range of 0.25 to 1 µg/mL (≈ 0.443 to 1.77 µM).

Regarding `CS(=O)(=O)NCC(Oc1ccc(F)c(C(N)=O)c1F)c1nc(-c2ccc(C(F)(F)F)cc2)co1` (stereo not shown) [Compound 284, 2,6-difluoro-3-(2-(methylsulfonamido)-1-(4-(4-(trifluoromethyl)phenyl)oxazol-2-yl)ethoxy)benzamide], the MIC is greater than 16 µg/mL.

Regarding `NC(=O)c1c(F)ccc(OC(CC(CO)CO)c2nc(-c3ccc(C(F)(F)F)cc3)c(Br)o2)c1F` (stereo not shown) [Compound 139, 3-(1-(5-bromo-4-(4-(trifluoromethyl)phenyl)oxazol-2-yl)-4-hydroxy-3-(hydroxymethyl)butoxy)-2,6-difluorobenzamide], the MIC is 1 to 16 µg/mL (≈ 1.77 to 28.3 µM).

In the case of `CS(=O)(=O)c1ccc(-c2nc(C(CO)Oc3ccc(F)c(C(N)=O)c3F)oc2Br)cc1` (stereo not shown) [Compound 145, 3-(1-(5-bromo-4-(4-(methylsulfonyl)phenyl)oxazol-2-yl)-2-hydroxyethoxy)-2,6-difluorobenzamide], the MIC is greater than 16 µg/mL.

In the case of `CN(Cc1cccnc1)C(=O)OCC(Oc1ccc(F)c(C(N)=O)c1F)c1nc(-c2ccc(C(F)(F)F)cc2)c(Br)o1` (stereo not shown) [Compound 185, 2-(5-bromo-4-(4-(trifluoromethyl)phenyl)oxazol-2-yl)-2-(3-carbamoyl-2,4-difluorophenoxy)ethyl methyl(pyridin-3-ylmethyl)carbamate], the MIC fell in the range of 0.25 to 1 µg/mL (≈ 0.381 to 1.53 µM).

Regarding `Cc1ccc(CNC(=O)OCC(Oc2ccc(F)c(C(N)=O)c2F)c2nc(-c3ccc(C(F)(F)F)cc3)c(Br)o2)cn1` (stereo not shown) [Compound 214, 2-(5-bromo-4-(4-(trifluoromethyl)phenyl)oxazol-2-yl)-2-(3-carbamoyl-2,4-difluorophenoxy)ethyl ((6-methylpyridin-3-yl)methyl)carbamate], the MIC was in the range of 0.25 to 1 µg/mL (≈ 0.381 to 1.53 µM).

In the case of `CCOC(=O)C(Oc1ccc(F)c(C(N)=O)c1F)c1nc(-c2ccc(Cl)cc2)co1` (stereo not shown) [Compound 6, ethyl 2-(3-carbamoyl-2,4-difluorophenoxy)-2-(4-(4-chlorophenyl)oxazol-2-yl)acetate], the MIC lay in the range of 1 to 16 µg/mL (≈ 2.29 to 36.6 µM).

As for `Cc1nn(C)cc1CNC(=O)OCC(Oc1ccc(F)c(C(N)=O)c1F)c1nc(-c2ccc(C(F)(F)F)cc2)c(Br)o1` (stereo not shown) [Compound 204, 2-(5-bromo-4-(4-(trifluoromethyl)phenyl)oxazol-2-yl)-2-(3-carbamoyl-2,4-difluorophenoxy)ethyl ((1,3-dimethyl-1H-pyrazol-4-yl)methyl)carbamate], the MIC fell in the range of 0.25 to 1 µg/mL (≈ 0.38 to 1.52 µM).

For the compound `NC(=O)c1c(F)ccc(O[C@H](CO)c2nc(-c3ccc(Cl)s3)c(Br)o2)c1F` [Compound 250B, (R)-3-(1-(5-bromo-4-(5-chlorothiophen-2-yl)oxazol-2-yl)-2-hydroxyethoxy)-2,6-difluorobenzamide], the MIC was less than 0.25 µg/mL.

For `NC(=O)c1c(F)ccc(OC(COC(=O)NCCn2ccccc2=O)c2nc(-c3ccc(C(F)(F)F)cc3)c(Br)o2)c1F` (stereo not shown) [Compound 217, 2-(5-bromo-4-(4-(trifluoromethyl)phenyl)oxazol-2-yl)-2-(3-carbamoyl-2,4-difluorophenoxy)ethyl (2-(2-oxopyridin-1(2H)-yl)ethyl)carbamate], the MIC lay in the range of 0.25 to 1 µg/mL (≈ 0.372 to 1.49 µM).

Regarding `NC(=O)c1c(F)ccc(OC(CO)c2nc(-c3ccc(Br)s3)c(Br)o2)c1F` (stereo not shown) [Compound 237, 3-(1-(5-bromo-4-(5-bromothiophen-2-yl)oxazol-2-yl)-2-hydroxyethoxy)-2,6-difluorobenzamide], the MIC lay in the range of 0.25 to 1 µg/mL (≈ 0.477 to 1.91 µM).
